Laboratory results from BindingDB's records for doi:10.1016/S0960-894X(00)80224-3 (1992).

biological target: Gastrin/cholecystokinin type B receptor (Cavia porcellus); assay: Displacement of [125I]CCK-OP radioligand from Cholecystokinin type B receptor of guinea pig cortical membranes

IC50, > 10 µM:
O=C(N[C@H]1C(=O)N(c2ccccc2)C[C@@H]1C(=O)O)c1ccc2ccccc2c1 [(3S,4R)-4-[(Naphthalene-2-carbonyl)-amino]-5-oxo-1-phenyl-pyrrolidine-3-carboxylic acid], O=C(N[C@@H]1C(=O)N(c2ccccc2F)C[C@@H]1C(=O)O)c1ccc2ccccc2c1 [(3S,4S)-1-(2-Fluoro-phenyl)-4-[(naphthalene-2-carbonyl)-amino]-5-oxo-pyrrolidine-3-carboxylic acid], O=C(N[C@@H]1C(=O)N(c2ccccc2F)C[C@@H]1C(=O)O)c1cnc2ccccc2c1 [(3S,4S)-1-(2-Fluoro-phenyl)-5-oxo-4-[(quinoline-3-carbonyl)-amino]-pyrrolidine-3-carboxylic acid], O=C(N[C@@H]1C(=O)N(c2ccccc2)C[C@@H]1C(=O)O)c1ccc2ccccc2c1 [(3S,4S)-4-[(Naphthalene-2-carbonyl)-amino]-5-oxo-1-phenyl-pyrrolidine-3-carboxylic acid]
